Read-outs that look alike come from different tables or passages of the source.
Test system: IL-17A/A
Experiment: IL-17A/A HEK-Blue cell assay
Format: cell-based
Conditions: IL-17A/A inhibition, HEK-Blue IL-17A reporter cell line, IL17A/A 5 ng/mL
Experimental: The HEK-Blue IL-17A reporter cell line (Fisher #NC1408637) was used for cell-based IL-17A/A inhibition assays. Cells were grown and prepared for assays according to the manufacturer's instructions. This cell line consists of HEK 293 cells that were designed to expressed IL-17RA, IL-17RC, and the Act1 adapter molecule, the combination of which, when stimulated by IL-17A/A or IL17A/F activates a NFκB promoter and drives expression of the recombinant Secreted Alkaline Phosphatase (SEAP) gene. Media from the cells is then added to a development reagent (Quanti-Blue Substrate, Fisher #NC9711613), and read at A630.
Compounds were dispensed in DMSO to an empty clear 384-well tissue culture plate in a titration ranging from 10 μM to 27 pM, with DMSO added to every well to a final concentration of 0.1%. Cells were then added to the plate (45 μL/well at a concentration of 280,000 cells/mL). IL17A/A (Genscript #Z03228) or IL17A/F (R&D Systems) was added to the plate to a final concentration of 5 ng/mL and a final well volume of 50 μL. The cells, compound, and IL-17A/A or IL17A/F were then incubated for 20 hours before media was removed for SEAP analysis. The resulting inhibition curve was then analyzed using Dotmatics' integrated 4-parameter fit screening protocol to generate IC50 values.

[1] = HEK-Blue, 20 h, SEAP read at A630, read-out: AA IC50
[2] = 20 hours, SEAP read at A630, read-out: AA IC50

Row | Compound | IC50 [1] | IC50 [2]
1 | CCn1nccc1C(=O)N[C@H](c1cn2nc(C[C@H]3C[C@@H](C(F)(F)F)CNC3=O)c(C3CCOCC3)cc2n1)[C@H]1CCCC(F)(F)C1 [Compound 55] | < 100 nM | –
2 | CCn1nccc1C(=O)N[C@H](c1cn2nc(C[C@H]3C[C@@H](C(F)(F)F)CNC3=O)c(C3=CCOC3)cc2n1)C1CCC(F)(F)CC1 [Compound 58] | 100 to 1000 nM | –
3 | CCn1nccc1C(=O)N[C@H](c1cn2nc(C[C@H]3C[C@@H](C(F)(F)F)CNC3=O)c(CN3CCOCC3)cc2n1)C1CCC(F)(F)CC1 [Compound 108, N—((S)-(4,4-difluorocyclohexyl)(7-(morpholinomethyl)-6-(((3R,5R)-2-oxo-5-(trifluoromethyl)piperidin-3-yl)methyl)imidazo[1,2-b]pyridazin-2-yl)methyl)-1-ethyl-1H-pyrazole-5-carboxamide] | < 100 nM | –
4 | CCn1nccc1C(=O)N[C@H](c1cn2nc(C[C@H]3C[C@@H](C(F)(F)F)CNC3=O)c(C3COCCO3)cc2n1)C1CCC(F)(F)CC1 (stereo partly drawn) [Compound 94] | 100 to 1000 nM | –
5 | CCn1nccc1C(=O)N[C@H](c1cn2nc(C[C@H]3C[C@H](C)CNC3=O)c(C3CCOCC3)cc2n1)C1CCC(F)(F)CC1 [Compound 102, N—((1S)-(4,4-difluorocyclohexyl)(6-(((5S)-5-methyl-2-oxopiperidin-3-yl)methyl)-7-(tetrahydro-2H-pyran-4-yl)imidazo[1,2-b]pyridazin-2-yl)methyl)-1-ethyl-1H-pyrazole-5-carboxamide] | 100 to 1000 nM | –
6 | CCn1nccc1C(=O)N[C@H](c1cn2nc(C[C@@H]3C[C@@H](C(F)(F)F)CNC3=O)c(-c3cccnc3)cc2n1)C1CCC(F)(F)CC1 [Compound 8] | 100 to 1000 nM | –
7 | CCn1nccc1C(=O)N[C@H](c1cn2nc(C[C@H]3C[C@@H](C(F)(F)F)CNC3=O)c(N3CC4CC3CO4)cc2n1)C1CCC(F)(F)CC1 (stereo partly drawn) [Compound 52] | – | < 100 nM
8 | CCn1nccc1C(=O)N[C@H](c1cn2nc(C[C@H]3C[C@@H](C(F)(F)F)CNC3=O)c(N3CC4(COC4)C3)cc2n1)C1CCC(F)(F)CC1 [Compound 43] | 100 to 1000 nM | –
9 | CCn1nccc1C(=O)N[C@H](c1cn2nc(C[C@H]3C[C@@H](C(F)(F)F)CNC3=O)c(C3CCOC3)cc2n1)C1CCC(F)(F)CC1 (stereo partly drawn) [Compound 6] | < 100 nM | –
10 | CCn1nccc1C(=O)N[C@H](c1cn2nc(C[C@H]3C[C@@H](C(F)(F)F)CNC3=O)c(C3CCCOC3)cc2n1)C1CCC(F)(F)CC1 (stereo partly drawn) [Compound 13] | – | < 100 nM
11 | CCn1nccc1C(=O)N[C@H](c1cn2nc(C[C@H]3C[C@@H](C(F)(F)F)CNC3=O)c(N3CC4CC3CO4)cc2n1)C1CCC(F)(F)CC1 (stereo partly drawn) [Compound 51] | < 100 nM | –
12 | CCn1nccc1C(=O)N[C@H](c1cn2nc(C[C@H]3C[C@@H](C(F)(F)F)CNC3=O)c(N3CCCCC3)cc2n1)C1CCC(F)(F)CC1 [Compound 18] | < 100 nM | –
13 | CCn1nccc1C(=O)N[C@H](c1cn2nc(C[C@H]3C[C@@H](C(F)(F)F)CNC3=O)c(CN3CCC(F)(F)C3)cc2n1)C1CCC(F)(F)CC1 [Compound 105, N—((S)-(4,4-difluorocyclohexyl)(7-((3,3-difluoropyrrolidin-1-yl)methyl)-6-(((3R,5R)-2-oxo-5-(trifluoromethyl)piperidin-3-yl)methyl)imidazo[1,2-b]pyridazin-2-yl)methyl)-1-ethyl-1H-pyrazole-5-carboxamide] | < 100 nM | –
14 | O=C(N[C@H](c1cn2nc(C[C@H]3C[C@@H](C(F)(F)F)CNC3=O)c(N3CC(F)(F)C3)cc2n1)C1CCC(F)(F)CC1)c1nonc1C1CC1 [Compound 40] | 100 to 1000 nM | –
15 | CCn1nccc1C(=O)N[C@H](c1cn2nc(C[C@H]3C[C@@H](C(F)(F)F)CNC3=O)c(CN3CCCC3)cc2n1)C1CCC(F)(F)CC1 [Compound 106, N—((S)-(4,4-difluorocyclohexyl)(6-(((3R,5R)-2-oxo-5-(trifluoromethyl)piperidin-3-yl)methyl)-7-(pyrrolidin-1-ylmethyl)imidazo[1,2-b]pyridazin-2-yl)methyl)-1-ethyl-1H-pyrazole-5-carboxamide] | < 100 nM | –
16 | CCn1nccc1C(=O)N[C@H](c1cn2nc(C[C@H]3C[C@@H](C(F)(F)F)CNC3=O)c(N3CCOCC3)cc2n1)C1CCC(F)(F)CC1 [Compound 37] | < 100 nM | –
17 | O=C(N[C@H](c1cn2nc(CC3C[C@@H](C(F)(F)F)CNC3=O)c(N3CCOCC3)cc2n1)C1CCC(F)(F)CC1)c1nonc1C1CC1 (stereo partly drawn) [Compound 15] | < 100 nM | –
18 | O=C(N[C@H](c1cn2nc(C[C@H]3C[C@@H](C(F)(F)F)CNC3=O)c(C3CCOC3)cc2n1)[C@@H]1CCCC(F)(F)C1)c1nonc1C1CC1 (stereo partly drawn) [Compound 70] | < 100 nM | –

Row | Compound | IC50 [1] | IC50 [2]
19 | CCn1nccc1C(=O)N[C@H](c1cn2nc(C[C@H]3C[C@@H](C(F)(F)F)CNC3=O)c(C3CCCCO3)cc2n1)C1CCC(F)(F)CC1 (stereo partly drawn) [Compound 85] | – | < 100 nM
20 | CCn1nccc1C(=O)N[C@H](c1cn2nc(C[C@H]3C[C@@H](C(F)(F)F)CNC3=O)c(N3CCN(C4CC4)CC3)cc2n1)C1CCC(F)(F)CC1 [Compound 80] | < 100 nM | –
21 | CCn1nccc1C(=O)N[C@H](c1cn2nc(C[C@@H]3C[C@@H](C(F)(F)F)CNC3=O)c(N3CCOCC3C)cc2n1)C1CCC(F)(F)CC1 (stereo partly drawn) [Compound 97] | – | < 100 nM
22 | CCn1nccc1C(=O)N[C@H](c1cn2nc(C[C@H]3C[C@@H](C(F)(F)F)CNC3=O)c(C3CCCOC3)cc2n1)[C@@H]1CCCC(F)(F)C1 (stereo partly drawn) [Compound 64] | < 100 nM | –
23 | CCn1nccc1C(=O)N[C@H](c1cn2nc(C[C@H]3C[C@@H](C(F)(F)F)CNC3=O)c(CN(C)CC(F)(F)F)cc2n1)C1CCC(F)(F)CC1 [Compound 116, N—((S)-(4,4-difluorocyclohexyl)(7-((methyl(2,2,2-trifluoroethyl)amino)methyl)-6-(((3R,5R)-2-oxo-5-(trifluoromethyl)piperidin-3-yl)methyl)imidazo[1,2-b]pyridazin-2-yl)methyl)-1-ethyl-1H-pyrazole-5-carboxamide] | < 100 nM | –
24 | CCn1nccc1C(=O)N[C@H](c1cn2nc(C[C@H]3C[C@@H](C(F)(F)F)CNC3=O)c(C3CCCOC3)cc2n1)C1CCC(F)(F)CC1 (stereo partly drawn) [Compound 2] | – | 100 to 1000 nM
25 | CCn1nccc1C(=O)N[C@H](c1cn2nc(C[C@H]3C[C@@H](C(F)(F)F)CNC3=O)c(CN3CCCCC3)cc2n1)C1CCC(F)(F)CC1 [Compound 107, N—((S)-(4,4-difluorocyclohexyl)(6-(((3R,5R)-2-oxo-5-(trifluoromethyl)piperidin-3-yl)methyl)-7-(piperidin-1-ylmethyl)imidazo[1,2-b]pyridazin-2-yl)methyl)-1-ethyl-1H-pyrazole-5-carboxamide] | < 100 nM | –
26 | O=C(N[C@H](c1cn2nc(C[C@H]3C[C@@H](C(F)(F)F)CNC3=O)c(C3CCOCC3)cc2n1)C1CCC(F)(F)CC1)c1nonc1C1CC1 [Compound 54] | < 100 nM | –
27 | CCn1nccc1C(=O)N[C@H](c1cn2nc(C[C@H]3C[C@@H](C(F)(F)F)CNC3=O)c(CN(CC(F)(F)F)C3CC3)cc2n1)C1CCC(F)(F)CC1 [Compound 117, N—((S)-(7-((cyclopropyl(2,2,2-trifluoroethyl)amino)methyl)-6-(((3R,5R)-2-oxo-5-(trifluoromethyl)piperidin-3-yl)methyl)imidazo[1,2-b]pyridazin-2-yl)(4,4-difluorocyclohexyl)methyl)-1-ethyl-/H-pyrazole-5-carboxamide] | < 100 nM | –
28 | CC(C)n1nccc1C(=O)N[C@H](c1cn2nc(C[C@H]3C[C@@H](C(F)(F)F)CNC3=O)c(C3CCOCC3)cc2n1)C1CCC(F)(F)CC1 [Compound 75] | < 100 nM | –
29 | CCn1nccc1C(=O)N[C@H](c1cn2nc(C[C@H]3C[C@@H](C(F)(F)F)CNC3=O)c(N3CCC(OC)C3)cc2n1)C1CCC(F)(F)CC1 (stereo partly drawn) [Compound 77] | < 100 nM | –
30 | CCn1nccc1C(=O)N[C@H](c1cn2nc(C[C@H]3C[C@@H](C(F)(F)F)CNC3=O)c(CN(C)C3CC3)cc2n1)C1CCC(F)(F)CC1 [Compound 113, N—((S)-(7-((cyclopropyl(methyl)amino)methyl)-6-(((3R,5R)-2-oxo-5-(trifluoromethyl)piperidin-3-yl)methyl)imidazo[1,2-b]pyridazin-2-yl)(4,4-difluorocyclohexyl)methyl)-1-ethyl-1H-pyrazole-5-carboxamide] | < 100 nM | –
31 | CCn1nccc1C(=O)N[C@H](c1cn2nc(C[C@H]3C[C@@H](C(F)(F)F)CNC3=O)c(N3CC(O)C3)cc2n1)C1CCC(F)(F)CC1 [Compound 98] | 100 to 1000 nM | –
32 | O=C(N[C@H](c1cn2nc(C[C@H]3C[C@@H](C(F)(F)F)CNC3=O)c(C3CCOC3)cc2n1)[C@H]1CCCC(F)(F)C1)c1nonc1C1CC1 (stereo partly drawn) [Compound 69] | < 100 nM | –
33 | CCn1nccc1C(=O)N[C@H](c1cn2nc(C[C@H]3C[C@@H](C(F)(F)F)CNC3=O)c(N3CC4CCC(C3)O4)cc2n1)C1CCC(F)(F)CC1 [Compound 50] | < 100 nM | –
34 | O=C(N[C@H](c1cn2nc(C[C@H]3C[C@@H](C(F)(F)F)CNC3=O)c(N3CC4(COC4)C3)cc2n1)C1CCC(F)(F)CC1)c1nonc1C1CC1 [Compound 42] | 100 to 1000 nM | –
35 | CCn1nccc1C(=O)N[C@H](c1cn2nc(C[C@H]3C[C@@H](C(F)(F)F)CNC3=O)c(C3CCCOC3)cc2n1)[C@@H]1CCCC(F)(F)C1 (stereo partly drawn) [Compound 66] | – | < 100 nM
36 | CCn1nccc1C(=O)N[C@H](c1cn2nc(C[C@H]3C[C@@H](C(F)(F)F)CNC3=O)c(C3CCCC3)cc2n1)C1CCC(F)(F)CC1 [Compound 46] | < 100 nM | –

Reference: patent publication US20260265259A1, “SUBSTITUTED 6-IMIDAZOPYRIDAZINE IL-17A MODULATORS AND USES THEREOF” (DICE ALPHA, INC., priority 2023, published 2026)
